Counter-ions that a name gives are not always drawn.
Target: recombinant sEH (soluble epoxide hydrolase, EPHX2) (Homo sapiens (Human), UniProt P34913)
Test: biochemical fluorometric sEH inhibition assay with Phome substrate
Details: recombinant sEH purified from Sf9 insect cells, 2 nM sEH, 5 μM Phome, 60 minutes at 30° C.
Description: Compounds were tested in a biochemical screening assay using recombinant sEH purified from Sf9 insect cells and an artificial substrate, (3-phenyl-oxiranyl)-acetic acid cyano-(6-methoxy-naphtalen-2-yl)-methyl ester, Phome. The biochemical assay was performed in analogy to a fluorometric described in the literature (P. D. Jones et al., Anal. Biochem. 2005, 343, 66-75). The assay principle bases on the sEH-catalyzed hydrolysis of an artificial α-cyano-ester substrate. O-deacetylation liberates a cyanohydrin intermediate that rapidly decomposes to the highly fluorescent 6-methoxy-2-naphtaldehyde. To discriminate sample autofluorescence, the assay was carried out as a kinetic measurement with two time points. The first measurement is performed immediately before addition of the substrate and the […] measurement is done after completion of the assay. The assay format is either in 96- or in 384-well format.
Details of the assay using a 96-well plate format are described below. 40 μl recombinant sEH enzyme and 5 μl test compound are pre-incubated for 15 minutes at 30° C. Following pre-incubation, the reaction is started by addition of 5 μl Phome. The assay mixture containing 2 nM final sEH concentration, test compound ranging in a concentration from 0.0001-10 μM and 5 μM Phome is incubated for 60 minutes at 30° C.
Fluorescence is measured with any suitable detector for instance a TECAN Safire or Tecan Ultra at […]. % inhibition of recombinant sEH activity is used for calculation of corresponding IC50 values as illustrated and described in the examples.
The NCBI gene bank reference sequence with the accession number NM_001979 for EPHX2/sEH was applied for recombinant protein production:
The following commercially available materials have been used: • Incubation reagent: 25 mM Hepes (Sigma-Aldrich, Cat. No H-3375), 0.01% bovine albumin (Sigma-Aldrich Cat. No PA9205) • Substrate: 3-Phenyl-oxiranyl)-acetic acid cyano-(6-methoxy-naphtalen-2-yl)-methyl ester, Phome (Biozol Cat. No 10003134) • Microtiter plates: 96-well plates (Greiner Cat. No 655180; Costar Cat. No 3915)

Chain of recombinant sEH (soluble epoxide hydrolase, EPHX2) (P34913 whole entry): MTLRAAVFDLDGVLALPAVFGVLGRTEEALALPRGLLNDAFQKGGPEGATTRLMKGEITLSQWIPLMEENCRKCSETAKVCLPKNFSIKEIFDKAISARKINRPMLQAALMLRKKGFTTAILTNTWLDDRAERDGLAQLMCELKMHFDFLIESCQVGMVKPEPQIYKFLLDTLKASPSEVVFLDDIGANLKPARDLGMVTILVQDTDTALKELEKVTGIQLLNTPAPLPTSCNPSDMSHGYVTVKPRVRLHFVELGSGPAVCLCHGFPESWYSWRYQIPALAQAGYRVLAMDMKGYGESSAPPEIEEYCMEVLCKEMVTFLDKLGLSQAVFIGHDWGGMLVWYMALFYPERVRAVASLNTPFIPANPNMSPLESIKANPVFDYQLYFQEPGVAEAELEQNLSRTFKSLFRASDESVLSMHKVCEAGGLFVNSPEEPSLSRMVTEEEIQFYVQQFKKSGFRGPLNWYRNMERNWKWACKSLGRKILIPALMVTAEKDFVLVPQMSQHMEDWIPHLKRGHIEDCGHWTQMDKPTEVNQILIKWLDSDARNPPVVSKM

IC50	SMILES
1.73 nM	CC(C)(O)CC(=O)N1CCN(Cc2ccc(C(=O)NCc3ccccc3OC(F)(F)F)s2)CC1 [Example 128]
1.73 nM	O=C(NCc1ccccc1OC(F)(F)F)c1ccc(CN2CCN(C(=O)c3nc(F)ccc3F)CC2)s1 [Example 129]
1.73 nM	Cn1cccc1C(=O)N1CCN(Cc2ccc(C(=O)NCc3ccc(Cl)cc3Cl)s2)CC1 [Example 130]
2.14 nM	NC1(C(=O)N2CCN(Cc3ccc(C(=O)NCc4ccc(Cl)cc4Cl)s3)CC2)CCOCC1 [Example 133]
2.15 nM	COc1ccc(CNC(=O)c2ccc(CN3CCN(C)C(=O)C3)s2)c(OC(F)(F)F)c1 [Example 134]
2.14 nM	CNC(=O)c1cccnc1N1CCN(Cc2ccc(C(=O)NCc3ccccc3OC(F)(F)F)s2)CC1 [Example 135]
2.13 nM	O=C(NCc1ccccc1OC(F)(F)F)c1ccc(CN2CCN(c3ccc(O)nn3)CC2)s1 [Example 136]
1.81 nM	COCCCC(=O)N1CCN(Cc2ccc(C(=O)NCc3ccccc3OC(F)(F)F)s2)CC1 [Example 140]
1.86 nM	O=C(NCc1ccccc1OC(F)(F)F)c1ccc(CN2CCN(C(=O)C3CC3)CC2)s1 [Example 141]
1.82 nM	O=C(NCc1ccccc1OC(F)(F)F)c1ccc(CN2CCN(c3nncs3)CC2)s1 [Example 142]
1.79 nM	NC(CF)C(=O)N1CCN(Cc2ccc(C(=O)NCc3ccccc3OC(F)(F)F)s2)CC1 (stereo not drawn) [Example 144]
1.88 nM	NC1(C(=O)N2CCN(Cc3ccc(C(=O)NCc4ccccc4OC(F)(F)F)s3)CC2)CCOCC1 [Example 145]
1.94 nM	COc1ccc(CNC(=O)c2ccc(CN3CCN(c4ccc(CO)cn4)CC3)s2)c(OC(F)(F)F)c1 [Example 146]
8.2 nM	COc1cc(CNC(=O)c2ccc(CN3CCN(C(=O)c4nc(F)ccc4F)CC3)s2)ccn1 [Example 149, 5-[4-(3,6-Difluoro-pyridine-2-carbonyl)-piperazin-1-ylmethyl]-thiophene-2-carboxylic acid (2-methoxy-pyridin-4-ylmethyl)-amide]
1.87 nM	Cc1cc(=O)oc(C)c1C(=O)N1CCN(Cc2ccc(C(=O)NCc3ccccc3OC(F)F)s2)CC1 [Example 150]
2.56 nM	O=C(NCc1ccc(Cl)cc1Cl)c1ccc(CN2CCN(C(=O)[C@@H]3C[C@H]3c3ccccc3)CC2)s1 [Example 153]
2 nM	O=C(NCc1ccccc1OC(F)(F)F)c1ccc(CN2CCN(C(=O)CN3CCOC3=O)CC2)s1 [Example 156]
2.08 nM	NC1(C(=O)N2CCN(Cc3ccc(C(=O)NCc4ccccc4OC(F)(F)F)s3)CC2)CCCCC1 [Example 157]

IC50	SMILES
2.04 nM	COCc1cc(O)nc(N2CCN(Cc3ccc(C(=O)NCc4ccccc4OC(F)(F)F)s3)CC2)n1 [Example 158]
0.8 nM	Cc1cc(C(=O)NCCC(C)(C)C)sc1CN1CCN(C(=O)c2c(C)cc(=O)oc2C)CC1 [Example 159]
1.41 nM	Cc1noc(C)c1C(=O)N1CCN(Cc2ncc(C(=O)NCc3ccc(Cl)cc3Cl)s2)CC1 [Example 160]
6.11 nM	CC1(C)OC(=O)CC1C(=O)N1CCN(Cc2ncc(C(=O)NCc3ccc(Cl)cc3Cl)s2)CC1 (stereo not drawn) [Example 161]
12.2 nM	Cc1cc(=O)oc(C)c1C(=O)N1CCN(Cc2ncc(C(=O)NCc3ccc(Cl)cc3Cl)s2)CC1 [Example 162]
11.4 nM	CSCCC(=O)N1CCN(Cc2ncc(C(=O)NCc3ccc(Cl)cc3Cl)s2)CC1 [Example 164]
21.3 nM	COCCCC(=O)N1CCN(Cc2ncc(C(=O)NCc3ccc(Cl)cc3Cl)s2)CC1 [Example 166]
18 nM	O=C(NCc1ccc(Cl)cc1Cl)c1cnc(CN2CCN(C(=O)C3COCCO3)CC2)s1 (stereo not drawn) [Example 170]
33.4 nM	COCCC(=O)N1CCN(Cc2ncc(C(=O)NCc3ccc(Cl)cc3Cl)s2)CC1 [Example 173]
91.1 nM	CC(C(=O)N1CCN(Cc2ncc(C(=O)NCc3ccc(Cl)cc3Cl)s2)CC1)N(C)C (stereo not drawn) [Example 177, 2-[4-(2-Dimethylamino-propionyl)-piperazin-1-ylmethyl]-thiazole-5-carboxylic acid 2,4-dichloro-benzylamide]
58.6 nM	O=C(NCc1ccc(Cl)cc1Cl)c1cnc(CN2CCN(C(=O)c3ccc[nH]c3=O)CC2)s1 [Example 178]
24.1 nM	CC[C@@H](O)C(=O)N1CCN(Cc2ncc(C(=O)NCc3ccc(Cl)cc3Cl)s2)CC1 [Example 179]
52.1 nM	O=C(NCc1ccc(Cl)cc1Cl)c1cnc(CN2CCN(C(=O)CO)CC2)s1 [Example 181]
18.8 nM	O=C(NCc1ccc(Cl)cc1Cl)c1cnc(CN2CCN(C(=O)C3CCOC3)CC2)s1 (stereo not drawn) [Example 183]
115 nM	CN1CCC[C@H]1C(=O)N1CCN(Cc2ncc(C(=O)NCc3ccc(Cl)cc3Cl)s2)CC1 [Example 184]
13.8 nM	CC(C)(O)CC(=O)N1CCN(Cc2ncc(C(=O)NCc3ccc(Cl)cc3Cl)s2)CC1 [Example 185]
15.9 nM	COCCOCC(=O)N1CCN(Cc2ncc(C(=O)NCc3ccc(Cl)cc3Cl)s2)CC1 [Example 188]

More lines, now with the values behind:

SMILES	IC50
O=C(NCc1ccc(Cl)cc1Cl)c1ccc(CN2CCN(C(=O)c3ccccc3F)CC2)s1 [Example 131]	2.13 nM
O=C(NCc1ccccc1OC(F)(F)F)c1ccc(CN2CCN(C(=O)c3cccc(O)n3)CC2)s1 [Example 132]	2.09 nM
CSCCC(=O)N1CCN(Cc2ccc(C(=O)NCc3ccccc3OC(F)(F)F)s2)CC1 [Example 137]	1.76 nM
CC(C(=O)N1CCN(Cc2ccc(C(=O)NCc3ccccc3OC(F)(F)F)s2)CC1)N(C)C (stereo not drawn) [Example 138]	6.27 nM
COc1cc(CNC(=O)c2ccc(CN3CCN(C(=O)c4c(C)n[nH]c4C)CC3)s2)ccn1 [Example 139, 5-[4-(3,5-Dimethyl-1H-pyrazole-4-carbonyl)-piperazin-1-ylmethyl]-thiophene-2-carboxylic acid (2-methoxy-pyridin-4-ylmethyl)-amide trifluoroacetate]	2.85 nM
NC1(C(=O)N2CCN(Cc3ccc(C(=O)NCc4ccccc4OC(F)(F)F)s3)CC2)CCC1 [Example 143]	1.85 nM
O=C(NCc1ccccc1OC(F)(F)F)c1ccc(CN2CCN(C(=O)C3COCCO3)CC2)s1 (stereo not drawn) [Example 147]	1.96 nM
Cc1cc(C(=O)NCc2ccccc2OC(F)(F)F)sc1CN1CCN(C(=O)c2c(C)cc(=O)oc2C)CC1 [Example 148]	1.87 nM
O=C(NCc1ccccc1C(F)(F)F)c1ccc(CN2CCN(C(=O)c3cnn4ccccc34)CC2)s1 [Example 151]	1.97 nM
Cc1ccc(C(=O)N2CCN(Cc3ccc(C(=O)NCc4ccccc4C(F)(F)F)s3)CC2)s1 [Example 152]	2.07 nM
Cc1ccc(C(=O)N2CCN(Cc3ccc(C(=O)NCc4ccc(Cl)cc4Cl)s3)CC2)s1 [Example 154]	2.05 nM
CC(O)C(=O)N1CCN(Cc2ccc(C(=O)NCc3ccccc3OC(F)(F)F)s2)CC1 (stereo not drawn) [Example 155]	1.99 nM
O=C(NCc1ccc(Cl)cc1Cl)c1cnc(CN2CCN(C(=O)CCO)CC2)s1 [Example 163]	25.2 nM
Cc1noc(C)c1CC(=O)N1CCN(Cc2ncc(C(=O)NCc3ccc(Cl)cc3Cl)s2)CC1 [Example 165]	9.61 nM
CCC(C)(O)C(=O)N1CCN(Cc2ncc(C(=O)NCc3ccc(Cl)cc3Cl)s2)CC1 (stereo not drawn) [Example 167]	12.2 nM
O=C(NCc1ccc(Cl)cc1Cl)c1cnc(CN2CCN(C(=O)CN3CCCC3=O)CC2)s1 [Example 168]	77.9 nM
CC(C(=O)N1CCN(Cc2ncc(C(=O)NCc3ccc(Cl)cc3Cl)s2)CC1)N1CCCC1=O (stereo not drawn) [Example 169]	8.76 nM
O=C(NCc1ccc(Cl)cc1Cl)c1cnc(CN2CCN(C(=O)C3CC3)CC2)s1 [Example 171]	15.8 nM
CC(C)(O)C(=O)N1CCN(Cc2ncc(C(=O)NCc3ccc(Cl)cc3Cl)s2)CC1 [Example 172]	10.8 nM
Cc1cccc(C(=O)N2CCN(Cc3ncc(C(=O)NCc4ccc(Cl)cc4Cl)s3)CC2)n1 [Example 174]	14.8 nM
O=C(NCc1ccc(Cl)cc1Cl)c1cnc(CN2CCN(C(=O)c3cccc(O)n3)CC2)s1 [Example 175]	20.4 nM
CC(C)(CO)C(=O)N1CCN(Cc2ncc(C(=O)NCc3ccc(Cl)cc3Cl)s2)CC1 [Example 176]	13.4 nM
O=C(NCc1ccc(Cl)cc1Cl)c1cnc(CN2CCN(C(=O)c3nc(F)ccc3F)CC2)s1 [Example 180]	8.46 nM
O=C(NCc1ccc(Cl)cc1Cl)c1cnc(CN2CCN(C(=O)C3CCCO3)CC2)s1 (stereo not drawn) [Example 182]	18.4 nM
O=C(NCc1ccc(Cl)cc1Cl)c1cnc(CN2CCN(C(=O)c3ccccn3)CC2)s1 [Example 186]	33.7 nM
CC(O)C(=O)N1CCN(Cc2ncc(C(=O)NCc3ccc(Cl)cc3Cl)s2)CC1 (stereo not drawn) [Example 189]	28.9 nM
CN1CCC(C(=O)N2CCN(Cc3ncc(C(=O)NCc4ccc(Cl)cc4Cl)s3)CC2)CC1 [Example 190]	> 1000 nM
CC[C@H](O)C(=O)N1CCN(Cc2ncc(C(=O)NCc3ccc(Cl)cc3Cl)s2)CC1 [Example 191]	14 nM
